Data on two substances can be found in paper PMC4838890, “Dynamic and flexible H3K9me3 bridging via HP1β dimerization establishes a plastic state of condensed chromatin” (Nature Communications, 2016).

Where two headings read alike, the source gives them in different places.

Data set [1] concerns the target CSD-CSD interaction of hHP1β monomers. The data set can be described thus: ITC dilution, CSD-CSD dimerization. To be noted: ITC dilution experiments, not shown. The class given is binding, human.
In another data set the target is H3K9me3 mononucleosome. The data set can be described thus: SPR, immobilized (symmetric) H3K9me3 mononucleosome. The class given is binding, Xenopus laevis. Here is the method:
SPR measurements were performed on a Biacore 2000 instrument (GE Healthcare, Buckinghamshire, UK) at 298 K in 10 mM triethanolamine (pH 7.5), 150 mM NaCl, 0.1 mM EDTA, 1 mM DTT, 0.005% (v/v) Tween-20. Biotinylated ligands were immobilized on streptavidin-coated sensor chips SA (GE Healthcare, Buckinghamshire, UK). Before immobilization, sensor chips were conditioned as described by the manufacturer. To obtain low surface densities (5–24 RU), 5 nM biotinylated H3 peptide was injected at a low rate of 10 μl min^−1 using varying contact times. High surface densities (>700 RU) were prepared by injecting […] peptide (10 μl min^−1) until the SA surface was saturated. Peptide-containing chips were regenerated by applying three short pulses of 0.05% (w/v) SDS followed by an injection of 1.5 M NaCl for baseline stabilization. For binding assays, hHP1β proteins were injected at […] (serial twofold dilutions) for 2 min (30 μl/min). Dissociation was recorded for up to 5 min. A streptavidin surface without ligands served as reference. In addition, blank runs were performed for double referencing. Data evaluation was performed by steady-state analysis assuming a Langmuir 1:1 binding model using BIAevaluation 4.1 and Prism 5.04 (GraphPad, CA, USA) software. Binding to the unmodified peptides was analysed with maximum binding (RUmax) set to the corresponding values obtained with the modified peptides.
Figure S8 Hiragami-Hamada et al. […]
Supplementary Figure 8: hHP1β binds nucleosomes as dimer. […]
RU. Injection series are from 0.024 to 50 µM protein concentration. […]
(f) SPR response traces of injection of hHP1β WT into Biacore cells containing biotinylated, symmetrically modified H3K9me3-mononucleosomes (i.e. both H3-tails carry H3K9me3) immobilized […]
(also on this page, place not known: dimer . hHP1 β H3K9me3 - se nsory ( b) site -specific ( b) hHP1 β ( d) site -specific hHP1 β modifi ed H3K9me3 -mononucleosomes H3 -tails -30 -50 -8 -4 200 -10 110 -50 -10 -30 [μM] [μM] -10 190 150 -10 110 200 -10 110 μl/min μl/min μl/min -50 150 response [RU] response [RU] response [RU] response [RU] response [RU] [μM] 10 50 response [RU]40 0 0 [μM] 10 30 50 response [RU] 40 0 0 40 [μM] 10 30 50 response [RU] 140 40 0 120 0 40 response [RU] response [RU] response [RU] Kd Kd μM Kd μM 0.8 0.6 0.4 0.2 0 1 1.0 0.8 0.6 0.4 0.2 0.0 mass fraction) […]
on a sensory chip via covalently coated streptavidin. Immobilized mononucleosome was at 950 RU.
Injection series are from 0.024 to 50 µM protein concentration.
(g) Blot of signal over concentration of the titration in (f) to deduce an apparent Kd value. For reference, fitting of the data to a one and two site- specific binding model is shown.
(h) Same analysis as in (f) but with hHP1β I161A. […]
Background: In SPR one partner is held on a chip, and binding of the other changes the refractive index at the surface.

The test system of a further data set is H3K9me3 oligonucleosomes. Description: Fluorescence correlation spectroscopy (FCS), H3K9me3 oligonucleosomes. Type of data set: biochemical, Xenopus laevis. The note with it: 150 mM NaCl. Here is the method:
All fluorescence measurements were performed with a pulsed custom-built mode-locked Ti:Sa-Laser and a confocal two-photon fluorescence microscope setup. Detailed description of the experimental setup and the measurement procedure are available on request. In all cases 10 nM of the acceptor labelled species, ATTO 610-labelled nucleosomal array, was incubated with 20–200 μM of recombinant hHP1β in 10 μl of 10 mM triethanolamine HCl (pH 7.5), 0.1 mM EDTA, 150 mM NaCl at 4°C. For each sample the fluorescence correlation curve, fluorescence intensity and anisotropy values were determined at 22°C. Every data point was averaged over a minimum of 15 single measurements of 10 s each. Excitation was by two-photon mode.
The fluorescence data were analysed using the correlation function [drawing 1] , and the equation for free diffusion of particles [drawing 2] , where I(t) is the fluorescence intensity measured at time t, N the particle number, τD the diffusion time, and r0=0.25 the axis ratio of the focal region, considering the dimensions of a Gaussian beam waist.
Supplementary Figure 3: Analysis of chromatin clustering m ediated by hHP1β.
(a) Schematic representation of a stepwise precipitation and resolubilization experiment.
(b) Results of stepwise precipitation and resolubilization after clustering H3K9me3-oligonucleosomes by hHP1β at different concentrations. DNA remaining in the supernatant after centrifugation was incubated with EtBr and measured by fluorescence reading. Data were normalized to amounts present in the input.
Results of a representative experiment are shown.
(c) Instrumental setup used for two -photon fluorescence correlation spectroscopy (FCS). The beam of a pulsed Ti:Sa-Laser is reflected into a water immersion objective (O) via a dichroic mirror (M). The fluorescence light transmitted through this dichroic mirror is split up by a second dichroic mirror. Blow- […]
F: filter, L: lens, M: dichroic mirror, O:objective, PD:
(d) Scheme of the strategy used for FCS measurements. DNA of oligonucleosomes was labeled at the 5’- […]

The mark [2] stands for this setting: SPR titration 0.024 to 50 µM, symmetrically modified mononucleosome at 950 RU, one site-specific binding, read-out: apparent Kd (Supplementary Fig. 8g,i).
The mark [3] stands for this setting: SPR, 150 mM NaCl, pH 7.5, 298 K, steady-state, WT value based on fitting to a one site-specific binding model, read-out: Kd (apparent dissociation constant).

Consider “hHP1β WT: recombinant human heterochromatin protein 1β (GenBank NM_001127228), 185 aa”, for which the CSD-CSD dimerization strength result in data set [1] is reported as “nanomolar regime”. The figures for the Kd at H3K9me3 mononucleosome (setting [2]) and at H3K9me3 mononucleosome (setting [3]) were 0.92 µM and 1 ± 0.2 µM, respectively. The maximum hydrodynamic radius in the data set on H3K9me3 oligonucleosomes (10 nM ATTO 610-labelled array, highest protein concentration) stood at 450 nm. Moreover, the EC50 in the data set with H3K9me3 oligonucleosomes (23°C, read-out: half-maximal effect, FCS) was determined as 3.5 µM.
Turning to “hHP1β I161A: CSD point mutant of hHP1β incapable of dimerization”, the Kd was found to be 4.3 µM on H3K9me3 mononucleosome (setting [2]) and 5.2 ± 0.6 µM on H3K9me3 mononucleosome (setting [3]). For the same substance, in the data set on H3K9me3 oligonucleosomes, the “complex formation by clustering (FCS)” value is reported as “No such complex formation by clustering”.
